Measured values reported in patent US10750743B2, “Pyridazinone herbicides” (E.I. DU PONT DE NEMOURS AND COMPANY, priority 2015, dated 2020).

Assays:
Format in all cases: in vivo
[1] = system: pigweed (Amaranthus retroflexus); test: Test A postemergence application, visual injury rating; conditions: 0 to 100 scale, 0 no effect, 100 complete control
Method in brief: (§1)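 Seeds sown in a loam soil–sand blend received a directed preemergence soil spray of test chemical in a non-phytotoxic solvent mixture with surfactant. Postemergence plants were sprayed at 2 to 10 cm, one- to two-leaf stage. After approximately 10 d in greenhouse, injury was visually rated 0 (no effect) to 100 (complete control) against untreated controls.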

[2] = system: ryegrass, It. (Italian ryegrass, Lolium multiflorum); test: as above; conditions: 0 to 100 scale, 0 no effect, 100 complete control
Method in brief: as §1

corn (Zea mays) = test: as above; conditions: 0 to 100 scale, 0 no effect, 100 complete control
Method in brief: as §1

[3] = system: barnyardgrass (Echinochloa crus-galli); test: as above; conditions: 0 to 100 scale, 0 no effect, 100 complete control
Method in brief: as §1

[4] = system: foxtail, giant (giant foxtail, Setaria faberii); test: as above; conditions: 0 to 100 scale, 0 no effect, 100 complete control
Method in brief: as §1

[5] = system: galium (catchweed bedstraw, Galium aparine); test: as above; conditions: 0 to 100 scale, 0 no effect, 100 complete control
Method in brief: as §1

[6] = system: wheat (Triticum aestivum); test: as above; conditions: 0 to 100 scale, 0 no effect, 100 complete control
Method in brief: as §1

kochia (Kochia scoparia) [7] = test: as above; conditions: 0 to 100 scale, 0 no effect, 100 complete control
Method in brief: as §1

[8] = system: ragweed (common ragweed, Ambrosia elatior); test: as above; conditions: 0 to 100 scale, 0 no effect, 100 complete control
Method in brief: as §1

[9] = system: blackgrass (Alopecurus myosuroides); test: as above; conditions: 0 to 100 scale, 0 no effect, 100 complete control
Method in brief: as §1

[10] = system: pigweed (Amaranthus retroflexus); test: Test A preemergence, directed soil spray, visual injury rating; conditions: 0 is no effect, 100 is complete control
Method in brief: as §1

[11] = system: ryegrass, It. (Italian ryegrass, Lolium multiflorum); test: as above; conditions: 0 is no effect, 100 is complete control
Method in brief: as §1

[12] = system: barnyardgrass (Echinochloa crus-galli); test: as above; conditions: 0 is no effect, 100 is complete control
Method in brief: as §1

[13] = system: foxtail, giant (giant foxtail, Setaria faberii); test: as above; conditions: 0 is no effect, 100 is complete control
Method in brief: as §1

kochia (Kochia scoparia) [14] = test: as above; conditions: 0 is no effect, 100 is complete control
Method in brief: as §1

[15] = system: ragweed (common ragweed, Ambrosia elatior); test: as above; conditions: 0 is no effect, 100 is complete control
Method in brief: as §1

[16] = system: ducksalad (Heteranthera limosa); test: Test B flooded paddy test, visual rating; conditions: Flood, 250 g ai/ha, applied to paddy water, rated after 13 to 15 d
Method in brief: (§2)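 Plants at the 2-leaf stage were flooded to 3 cm above soil, and test compounds were applied directly into the paddy water, which was held at that depth throughout. After 13 to 15 d in a greenhouse, injury was rated visually against untreated controls on a 0–100 scale (0 no effect, 100 complete control).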

[17] = system: barnyardgrass (Echinochloa crus-galli); test: Test B flooded paddy test, visual rating; conditions: Flood, 250 g ai/ha, applied to paddy water, rated after 13 to 15 d
Method in brief: as §2

[18] = system: sedge, umbrella (small-flower umbrella sedge, Cyperus difformis); test: Test B flooded paddy test, visual rating; conditions: Flood, 250 g ai/ha, applied to paddy water, rated after 13 to 15 d
Method in brief: as §2

rice (Oryza sativa) = test: Test B flooded paddy test, visual rating; conditions: Flood, 250 g ai/ha, applied to paddy water, rated after 13 to 15 d
Method in brief: as §2

| SMILES | Pigweed plant response rating ([1]; 31 g ai/ha) | Pigweed plant response rating ([1]; 125 g ai/ha) | Ryegrass, It. plant response rating ([2]; 31 g ai/ha) | Ryegrass, It. plant response rating ([2]; 125 g ai/ha) | Corn plant response rating (corn (Zea mays); 31 g ai/ha) | Corn plant response rating (corn (Zea mays); 125 g ai/ha) | Barnyardgrass plant response rating ([3]; 31 g ai/ha) | Barnyardgrass plant response rating ([3]; 125 g ai/ha) | Foxtail, Giant plant response rating ([4]; 31 g ai/ha) | Foxtail, Giant plant response rating ([4]; 125 g ai/ha) | Galium plant response rating ([5]; 31 g ai/ha) | Galium plant response rating ([5]; 125 g ai/ha) | Wheat plant response rating ([6]; 31 g ai/ha) | Wheat plant response rating ([6]; 125 g ai/ha) | Kochia plant response rating (kochia (Kochia scoparia) [7]; 31 g ai/ha) | Kochia plant response rating (kochia (Kochia scoparia) [7]; 125 g ai/ha) | Ragweed plant response rating ([8]; 31 g ai/ha) | Ragweed plant response rating ([8]; 125 g ai/ha) | Blackgrass plant response rating ([9]; 31 g ai/ha) | Blackgrass plant response rating ([9]; 125 g ai/ha) | other results |
| --- | --- | --- | --- | --- | --- | --- | --- | --- | --- | --- | --- | --- | --- | --- | --- | --- | --- | --- | --- | --- | --- |
| Cc1cc2c(Cl)ccc(-c3c(O)c(C)nn(C)c3=O)c2o1 [Compound 43] | 0 | 0 | 50 | 80 | 0 | 0 | 0 | 10 | 0 | 0 | 70 | 80 | 0 | 10 | 0 | 0 | 0 | 20 | 0 | 50 | Plant response rating (0 to 100 scale), Pigweed ([10]; 31 g ai/ha): 0; Plant response rating (0 to 100 scale), Pigweed ([10]; 125 g ai/ha): 0; Plant response rating (0 to 100 scale), Ryegrass, It. ([11]; 31 g ai/ha): 60; Plant response rating (0 to 100 scale), Ryegrass, It. ([11]; 125 g ai/ha): 80; Plant response rating (0 to 100 scale), Barnyardgrass ([12]; 31 g ai/ha): 10; Plant response rating (0 to 100 scale), Barnyardgrass ([12]; 125 g ai/ha): 30; Plant response rating (0 to 100 scale), Foxtail, Giant ([13]; 31 g ai/ha): 10; Plant response rating (0 to 100 scale), Foxtail, Giant ([13]; 125 g ai/ha): 40; Plant response rating (0 to 100 scale), Kochia (kochia (Kochia scoparia) [14]; 31 g ai/ha): 0; Plant response rating (0 to 100 scale), Kochia (kochia (Kochia scoparia) [14]; 125 g ai/ha): 0; Plant response rating (0 to 100 scale), Ragweed ([15]; 31 g ai/ha): 30; Plant response rating (0 to 100 scale), Ragweed ([15]; 125 g ai/ha): 30; Ducksalad plant response rating (0 to 100 scale, 0 is no effect, 100 is complete control) [16]: 40; Barnyardgrass plant response rating (0 to 100 scale, 0 is no effect, 100 is complete control) [17]: 0; Sedge, Umbrella plant response rating (0 to 100 scale, 0 is no effect, 100 is complete control) [18]: 35; Rice plant response rating (0 to 100 scale, 0 is no effect, 100 is complete control) (rice (Oryza sativa)): 0 |
| Cc1cc2c(-c3c(OC(=O)c4ccccc4)c(C)nn(C)c3=O)ccc(Cl)c2o1 [Compound 44] | 0 | 0 | 0 | 0 | 0 | 0 | 0 | 0 | 0 | 0 | 0 | 0 | 0 | 0 | 0 | 0 | 0 | 0 | 0 | 0 | Plant response rating (0 to 100 scale), Pigweed ([10]; 31 g ai/ha): 0; Plant response rating (0 to 100 scale), Pigweed ([10]; 125 g ai/ha): 0; Plant response rating (0 to 100 scale), Ryegrass, It. ([11]; 31 g ai/ha): 0; Plant response rating (0 to 100 scale), Ryegrass, It. ([11]; 125 g ai/ha): 20; Plant response rating (0 to 100 scale), Barnyardgrass ([12]; 31 g ai/ha): 0; Plant response rating (0 to 100 scale), Barnyardgrass ([12]; 125 g ai/ha): 0; Plant response rating (0 to 100 scale), Foxtail, Giant ([13]; 31 g ai/ha): 0; Plant response rating (0 to 100 scale), Foxtail, Giant ([13]; 125 g ai/ha): 0; Plant response rating (0 to 100 scale), Kochia (kochia (Kochia scoparia) [14]; 31 g ai/ha): 0; Plant response rating (0 to 100 scale), Kochia (kochia (Kochia scoparia) [14]; 125 g ai/ha): 0; Plant response rating (0 to 100 scale), Ragweed ([15]; 31 g ai/ha): 0; Plant response rating (0 to 100 scale), Ragweed ([15]; 125 g ai/ha): 0; Ducksalad plant response rating (0 to 100 scale, 0 is no effect, 100 is complete control) [16]: 0; Barnyardgrass plant response rating (0 to 100 scale, 0 is no effect, 100 is complete control) [17]: 0; Sedge, Umbrella plant response rating (0 to 100 scale, 0 is no effect, 100 is complete control) [18]: 0; Rice plant response rating (0 to 100 scale, 0 is no effect, 100 is complete control) (rice (Oryza sativa)): 0 |
| Cc1cc2c(-c3c(O)c(C)nn(C)c3=O)ccc(Cl)c2o1 [Compound 45] | 0 | 10 | 20 | 60 | 0 | 0 | 0 | 0 | 0 | 0 | 20 | 70 | 0 | 0 | 0 | 0 | 0 | 0 | 0 | 0 | Plant response rating (0 to 100 scale), Pigweed ([10]; 31 g ai/ha): 0; Plant response rating (0 to 100 scale), Pigweed ([10]; 125 g ai/ha): 50; Plant response rating (0 to 100 scale), Ryegrass, It. ([11]; 31 g ai/ha): 0; Plant response rating (0 to 100 scale), Ryegrass, It. ([11]; 125 g ai/ha): 30; Plant response rating (0 to 100 scale), Barnyardgrass ([12]; 31 g ai/ha): 0; Plant response rating (0 to 100 scale), Barnyardgrass ([12]; 125 g ai/ha): 0; Plant response rating (0 to 100 scale), Foxtail, Giant ([13]; 31 g ai/ha): 0; Plant response rating (0 to 100 scale), Foxtail, Giant ([13]; 125 g ai/ha): 0; Plant response rating (0 to 100 scale), Kochia (kochia (Kochia scoparia) [14]; 31 g ai/ha): 0; Plant response rating (0 to 100 scale), Kochia (kochia (Kochia scoparia) [14]; 125 g ai/ha): 0; Plant response rating (0 to 100 scale), Ragweed ([15]; 31 g ai/ha): 0; Plant response rating (0 to 100 scale), Ragweed ([15]; 125 g ai/ha): 10; Ducksalad plant response rating (0 to 100 scale, 0 is no effect, 100 is complete control) [16]: 30; Barnyardgrass plant response rating (0 to 100 scale, 0 is no effect, 100 is complete control) [17]: 0; Sedge, Umbrella plant response rating (0 to 100 scale, 0 is no effect, 100 is complete control) [18]: 50; Rice plant response rating (0 to 100 scale, 0 is no effect, 100 is complete control) (rice (Oryza sativa)): 0 |
